Experimental data reported in patent publication US7968535B2, “Use of azapaullones for preventing and treating pancreatic autoimmune disorders” (Develogen Atkiengesellschaft, priority 2005, dated 2011).

Legend:
human GSK3 = test: IC50 Profiler Express kinase assay; type: biochemical; settings: 10-point curves in duplicate
Description: Experiments were carried out by Upstate Ltd. according to the protocols described in KinaseProfiler™ Assay Protocols, IC50 Profiler Express™ (10-point curves in duplicate) Fall 2004 by Ustate Cell Signaling solutions.

INS-1E cells [1] = test: Ins-1E cell proliferation assay (BrdU incorporation); type: cell-based, rat
Description: The proliferation rate of Ins-1E cells was determined by monitoring DNA synthesis using a 5-bromo-2′-deoxyuridine (BrdU) incorporation assay. BrdU is a halogenated nucleotide analogue of thymidine that is incorporated into DNA during the S-phase of the cell cycle. Pulse-labeling of DNA with BrdU and subsequent immunohistochemical detection of labeled nuclei was used to study the rate of cell proliferation. The treatment of INS-1E cells with 4-Azakenpaullone for 24 hours increases BrdU incorporation of Ins-1E cells in a concentration dependent manner, reaching a maximum of about 1.4 fold between 5 μM and 10 μM 4-AKP.
The proliferation of Ins-1E insulinoma cells was determined by monitoring DNA synthesis as an indirect parameter of cell proliferation. The incorporation of the thymidine analogue 5-bromo-2′-deoxyuridine (BrdU) during replication into cellular DNA was used to label the DNA of mitotically active cells. After its incorporation into DNA, BrdU was detected by immunoassay.
(§1) 10,000 Ins-1E cells were seeded per 96-well (black 96-well tissue culture plates, Falcon #353948) in 100 μl culture medium (RPMI 1640 containing 11 mM glucose, 5% FCS, 10 mM HEPES, 50 μM 2-mercaptoethanol, 1 mM MEM sodium pyruvate, 100 U/ml penicillin, 100 μg/ml streptomycin) and cultivated at 37° C., 5% CO2 in humidified atmosphere for 3 days. Media was changed to 100 μl starvation medium (culture medium with only 5 mM glucose, 1% FCS) and the cells were re-incubated for 1 day. Then media was exchanged to starvation medium containing test substances and the cells were further incubated for 24 h. For the last 4 hours BrdU was added to reach a concentration of 10 μM. Cell proliferation ELISA (Cell Proliferation ELISA, BrdU, chemiluminescence, Roche, cat. No. 1669915) was performed according to the manufacturers guidelines.

INS-1E cells [2] = test: Cell number by CyQuant assay; type: cell-based, rat; settings: 24 hours
Description: (§2) The effects of the substance on cell viability, cell growth and specific apoptotic events such as caspases activity and DNA-fragmentation was monitored. INS-1E cell apoptosis was induced by treatment of cell cultures with toxic concentrations of glucose and palmitate for 24 hours. The substance of interest was added to the medium 1 hour prior to the addition of the toxic agents.
as §1, with “substances. […]” for “substances and the cells were further incubated for 24 h. For the last 4 hours BrdU was added to reach a concentration of 10 μM. Cell proliferation ELISA (Cell Proliferation ELISA, BrdU, chemiluminescence, Roche, cat. No. 1669915) was performed according to the manufacturers guidelines.”
Cell number was measured by staining of cellular DNA with CyQuant dye (CyQuant Cell Proliferation Assay Kit, Molecular Probes, cat. No. C-7026) which becomes fluorescent when bound to DNA. […]

INS-1E cells [3] = test: Viability by Alamar Blue reduction under glucose/palmitate; type: cell-based, rat; settings: 24 hours
Description: as §2
as §1, with “substances. […]” for “substances and the cells were further incubated for 24 h. For the last 4 hours BrdU was added to reach a concentration of 10 μM. Cell proliferation ELISA (Cell Proliferation ELISA, BrdU, chemiluminescence, Roche, cat. No. 1669915) was performed according to the manufacturers guidelines.”
Viability was assessed by mitochondric reduction of the non toxic dye Alamar Blue (Bioscource, cat. No. DAL1025). The dye was added to the cells 4 hours before read-out according to the manufacturers guidelines. Basal fluorescence was measured immediately to be subtracted from the fluorescence after 4 hours. […]

INS-1E cells [4] = test: DNA-fragmentation ELISA in glucose/palmitate stressed cells; type: cell-based, rat; settings: glucose/palmitate 24 hours; for reduction of cytosolic DNA-fragments: 20 μM
Description: as §2
DNA-fragmentation is a comparatively late apoptotic event comprising storage of nucleosomal DNA-fragments as mono- and oligo nucleosomes in the cytoplasm. The incubation of INS1-E cells with high concentrations of glucose and palmitate for 24 hours leads to DNA breakdown and the accumulation of nucleosomal DNA fragments in the cytoplasm. The detectable amount of cytosolic nucleosomal DNA fragments was reduced by about 17%, when cells were treated with the apoptosis inducing agents in combination with 10 μM 4-AKP.
as §1, with “substances.” for “substances and the cells were further incubated for 24 h. For the last 4 hours BrdU was added to reach a concentration of 10 μM. Cell proliferation ELISA (Cell Proliferation ELISA, BrdU, chemiluminescence, Roche, cat. No. 1669915) was performed according to the manufacturers guidelines.”
(§3) Apoptosis of Ins-1E cells was induced by addition of a combination of BSA coupled palmitate and glucose (pal/gluc) or a combination of cytokines (cyt) 1 hour after starting the treatment with test substances: pal/gluc: 0.3 mM palmitate:BSA (palmitic acid sodium salt:fatty acid free BSA 6:1) and 25 mM glucose. 10×cyt: 0.04 ng/ml IL-1β and 1 ng/ml IFNγ. The cells were further incubated with test substances and apoptotic inducer for 24 hours.
DNA-fragmentation is a late apoptotic event comprising storage of nucleosomal DNA-fragments as mono- and oligo nucleosomes in the cytoplasm. Their concentration was determined by ELISA (Cell death detection ELISA, Roche, cat. No. 1774425) according to the manufacturers guidelines.

INS-1E cells [5] = test: Caspase activity assay in glucose/palmitate stressed cells; type: cell-based, rat
Description: as §2
Caspase activation is a characteristic of early apoptotic cells. The experiment was carried out as described above with the exception that the caspases activity assay was applied instead of the DNA-fragmentation assay (see Example 3 for details).
as §1, with “substances.” for “substances and the cells were further incubated for 24 h. For the last 4 hours BrdU was added to reach a concentration of 10 μM. Cell proliferation ELISA (Cell Proliferation ELISA, BrdU, chemiluminescence, Roche, cat. No. 1669915) was performed according to the manufacturers guidelines.”
as §3
Caspase activity is a characteristic of early apoptotic cells. Their activity was quantified by an enzymatic assay (homogeneous caspases assay, Roche, cat. No. 03 005 372 001). Caspase activity was measured 3 hours after addition of caspases substrate according to the manufacturers guidelines.

INS-1E cells [6] = test: Glucolipotoxicity induced apoptosis of INS-1E cells (overall assessment); type: cell-based, rat; settings: palmitate and glucose, 24 hours
Description: as §2
The effects of the test compounds on beta cell function were assessed using biological assays monitoring cellular metabolic activity as well as specific apoptotic events in Ins-1E cells.
as §1, with “substances.” for “substances and the cells were further incubated for 24 h. For the last 4 hours BrdU was added to reach a concentration of 10 μM. Cell proliferation ELISA (Cell Proliferation ELISA, BrdU, chemiluminescence, Roche, cat. No. 1669915) was performed according to the manufacturers guidelines.”
as §3

[7] = tested on: cyclin-dependent kinases (CDKs); test: KinaseProfiler biochemical kinase activity assays
Description: (§4) Experiments were carried out by Upstate Ltd. according to the protocols described in KinaseProfiler™ Assay Protocols Fall 2004 by Ustate Cell Signaling solutions.
(§5) Compounds 10c and e are structurally very similar to 1-Azakenpaullone and differ only by one substituent at position 9 of the D ring from their template 1-Azakenpaullone. […] These kinases were selected among about 250 different kinases based on their structural or functional similarity to GSK3, e.g. all available members of the CDK family were included in the survey because CDKs are most similar to GSK3 and several kinase inhibitors are known that inhibit members of both families. The direct comparison of different compounds in such an experiment provides information on the relative selectivity of the respective compounds.

[8] = tested on: panel of 28 protein kinases; test: KinaseProfiler biochemical kinase activity assays; settings: tested in parallel with 1-Azakenpaullone
Description: as §4, §5

For `O=C1Cc2c([nH]c3ccc(Br)cc23)-c2ncccc2N1` [1-Azakenpaullone, reference compound], the “inhibition of human GSK3” value (human GSK3) was “potent inhibitor”.

`O=C1Cc2c([nH]c3ccc(Br)cc23)-c2cccnc2N1` [4-Azakenpaullone, reference compound] was tested, and the “BrdU incorporation relative to untreated controls (maximum)” value (INS-1E cells [1]; 24 hours, maximum between 5 μM and 10 μM) was “about 1.4 fold”, the “increase in cell-number relative to untreated controls” value (INS-1E cells [2]) was 1.2 fold and the “viability of Ins-1E cells subjected to apoptosis inducing concentrations of glucose and palmitate” value (INS-1E cells [3]) was “slightly improves the viability”. The “reduction of cytosolic nucleosomal DNA fragments” value (INS-1E cells [4]; 10 μM) was “about 17%”, the “reduction of caspase activity” value (INS-1E cells [5]; 10 μM) was 18% and the “effect on glucolipotoxicity induced apoptosis” value (shortened to “effect”) (INS-1E cells [6]) was “slightly antagonizes apoptotic processes”.

In the case of `COc1ccc2[nH]c3c(c2c1)CC(=O)Nc1cccnc1-3` [Compound 10a, 9-Methoxy-7,12-dihydro-pyrido[3′,2′:2,3]azepino[4,5-b]indole-6(5H)-one], the “proliferation of INS-1E cells (in words)” value (INS-1E cells [1]) is reported as “small effect”, the “BrdU incorporation relative to untreated controls (maximum)” value (INS-1E cells [1]; at about 10 μM) is reported as “about 1.2 fold” and the “reduction of cytosolic DNA-fragments” value (INS-1E cells [4]) is reported as 44%. The “reduction of caspase activity” value (INS-1E cells [5]; 20 μM) was 22% and the “effect” value (INS-1E cells [6]) was “moderately prevents glucolipotoxicity induced apoptosis”.

With `O=C1Cc2c([nH]c3ccc(O)cc23)-c2ncccc2N1` [Compound 10d, 9-Hydroxy-7,12-dihydropyrido[3′,2′:2,3]azepino[4,5-b]indole-6(5H)-one] the “reduction of cytosolic DNA-fragments” value (INS-1E cells [4]) was 23%, the “reduction of caspase activity” value (INS-1E cells [5]; 20 μM) was 27% and the “effect” value (INS-1E cells [6]) was “slightly effects glucolipotoxicity induced apoptosis”.

In the case of `O=C1Cc2c([nH]c3ccc(Cl)cc23)-c2ncccc2N1` [Compound 10e, 9-Chloro-7,12-dihydropyrido[3′,2′:2,3]azepino[4,5-b]indole-6(5H)-one], the “BrdU incorporation relative to untreated controls (maximum)” value (INS-1E cells [1]; maximum between 1 μM and 10 μM) is reported as “about 1.7 fold”, the “reduction of cytosolic DNA-fragments” value (INS-1E cells [4]) is reported as 23% and the “reduction of caspase activity” value (INS-1E cells [5]; 20 μM) is reported as 16%. The “effect” value (INS-1E cells [6]) was “slightly prevents glucolipotoxicity induced apoptosis”, the “inhibition of cyclin-dependent kinases (CDKs)” value [7] was “significantly inhibits” and the “kinase selectivity / activity profile” value [8] was “selective kinase inhibitors”.

In the case of `O=C1Cc2c([nH]c3ccc(C(F)(F)F)cc23)-c2ncccc2N1` [Compound 10l, 9-Trifluoromethyl-7,12-dihydropyrido[3′,2′:2,3]azepino[4,5-b]indol-6(5H)-one], the “BrdU incorporation relative to untreated controls (maximum)” value (INS-1E cells [1]; maximum between 1 μM and 5 μM) is reported as “about 1.4 fold” and the “effect” value (INS-1E cells [6]) is reported as “significantly effects glucolipotoxicity induced apoptosis”.
